From patent US11267815B2, “Class of amino-substituted nitrogen-containing fused ring compounds, preparation method therefor, and use thereof” (SHANGHAI RINGENE BIOPHARMA CO., LTD., priority 2017, dated 2022)

Legend:
[1] = tested on: various tumor cells (HuH-7, SNU-16, KG1, UM-UC-14, RT-112 etc.); assay: Proliferation inhibitory activity on various tumor cells (SRB or CCK8); assay type: cell-based; conditions: SRB or CCK8 method; read-out: proliferation inhibitory activities on various tumor cells
[2] = tested on: xenograft tumors; assay: Xenograft tumor growth in nude mice; assay type: in vivo; conditions: oral, daily for three weeks, lower dose (even less than 20 mg/kg)
Method: 1. The tumor tissue in vigorous growth period was cut into about 1.5 mm^3, and subcutaneously inoculated into the right armpit of nude mice under sterile condition. The diameter of the subcutaneous transplanted tumors in nude mice was measured with vernier caliper, and the animals were randomly divided into groups when the average volume of the tumor reached about 130 mm^3. The embodiment compounds (prepared to the desired concentration with water for injection containing 1% Tween 80 for later use) were orally administered at a predetermined dose every day for three weeks, while a same amount of menstruum was administered in the menstruum control group. During the whole experiment, the diameter of the xenograft tumor was measured twice a week and the weight of the mice was weighed at the same time. The tumor volume (TV) was calculated by the formula: TV=½×a×b^2, where a and b represent length and width respectively. According to the measured results, the relative tumor volume (RTV) was calculated by the formula: RTV=Vt/V0, where V0 was the tumor volume measured when the mice were divided into cages for administration (i.e., d0) and Vt was the tumor volume at each measurement. […]

- IC50 [1]: < 100 nM
SMILES: C=CC(=O)N1CCN(CCCc2cn3c(n2)c(-c2c(Cl)c(OC)cc(OC)c2Cl)cc2cnc(NC)nc23)CC1 [Embodiment 3, 1-(4-(3-(6-(2,6-dichloro-3,5-dimethoxyaniline)-2-(methylamine)imidazo[1′,2′:1,6]pyrido[2,3-d]pyrimidin-8-yl)propyl)piperazine-1-yl)prop-2-en-1-one]
- anti-tumor rate [2]: more than 80%
